Experiment [1] deals with human colorectal cancer cell line (GP2D). The experiment can be described thus: Anti-tumor efficacy in mouse transplanted tumor model of human colorectal cancer cell line (GP2D). Format: in vivo, mice (BALB/c nude). Conditions: PO*BID. An excerpt: 8-10 week old female conventional immunodeficient mice (BALB/c nude) with a body weight of 18 g-22 g were used as experimental animals, and a transplanted tumor model of human colorectal cancer cell line (GP2D) was used to conduct in vivo efficacy experiments to test the anti-tumor results of the example compounds after gavage administration.
The example compounds of the present invention, made in house.
A certain amount of the example compound was weighed, and an appropriate amount of 10% vehicle (Solutol HS15) was added. The mixture was stirred on a magnetic stirrer for 0.5 h to formulate a homogeneous suspension at the desired concentration.
The human colorectal cancer cell line (GP2D) was derived from COBIOER BIOSCIENCES CO., LTD, cultured on DMEM medium (Gibco, 11995-065) supplemented with 10% fetal calf serum (Gibco, 10091-148) and 1% penicillin/streptomycin (Gibco, 15140-122) and observed under a microscope (Thermo Fisher, 311). The cells were routinely passaged when the cells reached 80%-90% confluence in the culture flask. The passaged cells were cultured in a 37°C, 5% CO2 incubator (Thermo Fisher, 311).
Under aseptic conditions, human colorectal cancer cells (GP2D) in the logarithmic growth phase were harvested using 0.25% trypsin-EDTA (Gibco, 25200-056), washed and resuspended with phosphate buffer. The cell suspension was mixed with Matrigel (Corning, 356234) at a 1 : 1 ratio (v/v) and implanted subcutaneously into the right anterior dorsal region of immunodeficient mice (BALB/c nude). Each mouse was inoculated with 5*10^6 cells in a volume of 100 microliters (µL). After inoculation, when the tumor volume reached 100-200 mm^3, the mice would be evenly randomized into 5 groups based on the tumor size, with 5 mice per group, for in vivo efficacy experiments. The positive control group was the compound MRTX-1133, and the negative control group was the vehicle group.
Mode of administration: The positive control group was intraperitoneally injected, and the example compounds were administered orally.
Twice a week, the long and short diameters of the tumor were measured using a vernier caliper, and the tumor volume (mm^3) was calculated using the formula: V = 0.5*D*d*d, where D and d are the long and short diameters of the tumor, respectively. The anti-tumor efficacy was determined by dividing the average increase in tumor volume of compound-treated animals by the average increase in tumor volume of untreated animals. The calculation formula for tumor inhibition rate was: When there is no tumor regression, TGI(%) = 100-[(Vt-V0) administration group/(Vt-V0) vehicle control group]*100%. When tumor regression occurs, TGI(%) = [1-(V1-V0) administration group/V0 vehicle control group]* 100%. All animals were euthanized after the experiment.

For experiment [2] the test system is unchanged. The description is as above. Conditions: 30mpk, PO*BID, Day 14. Format: in vivo, mice (BALB/c nude).
For a further experiment, the system named is p-ERK in AGS cells. The experiment can be described thus: Inhibition of p-ERK in AGS cells (LANCE Ultra phospho-ERK1/2 kit). Conditions: Homo sapiens, AGS, 2 h, read-out: AGS_pERK IC50. Format: cell-based. The procedure: 1. Experimental objective: The inhibition activity of the example compounds on the phosphorylated ERK level in KRAS G12D mutant cells AGS was determined. 2. Experimental instruments: • 2.1 Instruments: Envison; Pipette (Eppendorf & Rainin) • 2.2 Reagents: AGS cells were purchased from COBIOER BIOSCIENCES CO., LTD, with a catalog number of CBP60476; Phosphorylated ERK1/2 (T202-Y204) LANCE Ultra Cellular Detection Kit was purchased from PerkinElmer, with a catalog number of TRF4000M; RPMI 1640 was purchased from Gibco, with a catalog number of 22400071; FBS was purchased from Gibco, with a catalog number of 10091148; PBS was purchased from Gibco, with a catalog number of 10010023; trypsin was purchased from Gibco, with a catalog number of 25200056; cell culture plates were purchased from Corning Company, with a catalog number of 3610; White opaque OptiPlate™-384 plates were purchased from PerkinElmer, with a catalog number of 6007290. 3. Experimental method: When AGS cells were cultured to appropriate confluence, the AGS cells were collected, and the cell density was adjusted to 4 × 10^5/mL using complete culture medium. The cell suspension was plated onto a 96-well plate at 100 µL per well, and the plate was placed in the incubator at 37°C and 5% CO2 for adherent culture overnight. Solutions of the compound with different concentrations were formulated using DMSO and complete culture medium, and a vehicle control was set up. The solutions of the compound were added to the 96-well plate at 25 µL per well, and the plate was placed in the incubator at 37°C and 5% CO2 for further culture for 2 h. Then, the supernatant of the cell culture plate was discarded, 50 µL of lysis buffer was added to each well, the cells were lysed at room temperature under shaking for 30 min, then placed in a centrifuge and centrifuged at 1000 rpm for 1 min. 15 µL of supernatant was transferred to a 384-well plate, 5 µL of detection mixture was added to each well (Eu-labeled anti-ERK1/2 (T202-Y204) Antibody at a final detection concentration of 0.5 nM and ULight labeled anti-ERK1/2 Antibody at a final detection concentration of 5 nM), centrifuged at 1000 rpm for 1 min, mixed evenly, and reacted at room temperature overnight. The plate was read using Envison and the signal values at the emission wavelengths of 620 nm and 665 nm were detected using a time-resolved fluorescence program. 4. […] Graphpad Prism software was used to fit the concentration and inhibition rate to a nonlinear regression curve, so as to obtain the IC50 value. Table 5: Inhibition activity of the compounds on p-ERK in AGS cells

The next experiment has as its target KRAS WT (Homo sapiens, UniProt P01116). The experiment in a line: KRAS WT biochemical assay (Table 1, no method of its own). It is filed as binding.

Structures can show the parent of a compound that is named as a salt.

Sequence of KRAS WT (P01116 1-188 isoform P01116-2): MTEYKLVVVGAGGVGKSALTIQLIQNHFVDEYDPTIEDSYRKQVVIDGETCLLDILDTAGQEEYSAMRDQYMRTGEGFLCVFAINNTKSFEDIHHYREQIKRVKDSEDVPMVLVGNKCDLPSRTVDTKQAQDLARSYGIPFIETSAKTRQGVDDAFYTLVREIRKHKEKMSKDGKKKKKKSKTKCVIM

For the compound “4-((5S,5aS,6R,9S)-12-((1-((((R)-4-(difluoromethylene)-2-methylpiperidin-1-yl)methyl)cyclopropyl)methoxy)-1-fluoro-5-(methyl-d3)-5a,6,7,8,9,10-hexahydro-5H-4-oxa-3,10a,11,13,14-pentaaza-6,9-methylnaphtho[1,8-ab]hept-2-yl)-5-ethynyl-6-fluoronaphthalen-2-ol [Example 162]”, in experiment [1] (30mpk), the “Tumor volume (mm^3, Mean ± SD) Day 0” value was determined as 167 mm^3; the “TGI(%) Day 14” value is 122.15%; the “ΔT/ΔC(%) Day 14” value is on record as 16.47%. In addition, in experiment [1] (100mpk), the “Tumor volume (mm^3, Mean ± SD) Day 0” value was found to be 167 mm^3; the “TGI(%) Day 14” value is listed as 133.67%; the “Tumor volume (mm^3, Mean ± SD) Day 14” value worked out at 111 mm^3; the “ΔT/ΔC(%) Day 14” value amounted to 14.04%. The “Tumor volume (mm^3, Mean ± SD) Day 14” value in experiment [2] stood at 130 mm^3.
The term IC50 denotes the concentration at which inhibition is half-maximal. For the compound `C#Cc1c(F)ccc2cc(O)cc(-c3nc4c5c(nc(OCC6(CN7CCC(=C(F)F)CC7)CC6)nc5c3F)N3C[C@H]5CC[C@H](N5)[C@H]3CO4)c12` [Example 1-1, 4-((5aS,6S,9R)-12-((1-((4-(difluoromethylene)piperidin-1-yl)methyl)cyclopropyl)methoxy)-1-fluoro-5a,6,7,8,9,10-hexahydro-5H-4-oxa-3,10a,11,13,14-pentaaza-6,9-methylenenaphtho[1,8-ab]heptalene-2-yl)-5-ethynyl-6-fluoronaphthalen-2-ol], the IC50 is 7 nM with p-ERK in AGS cells and 79 nM against KRAS WT.
`C#Cc1c(F)ccc2cc(O)cc(-c3nc4c5c(nc(OCC6(CN7CCC(=C(F)F)CC7)CC6)nc5c3F)N3C[C@H]5CC[C@H](N5)[C@H]3[C@H](C)O4)c12` [Example 19-1, 4-((5S,5aS,6S,9R)-12-((1-((4-(difluoromethylene)piperidin-1-yl)methyl)cyclopropyl)methoxy)-1-fluoro-5-methyl-5a,6,7,8,9,10-hexahydro-5H-4-oxa-3,10a,11,13,14-pentaaza-6,9-methylnaphtho[1,8-ab]hept-2-yl)-5-ethynyl-6-fluoronaphthalene-2-ol]: the 50% inhibitory concentration (IC50) with p-ERK in AGS cells was 5.6 nM.
On the same count and under the same terms, the result for `C#Cc1c(F)ccc2cc(O)cc(-c3nc4c5c(nc(OCC6(CN7CCC(=NOC)CC7)CC6)nc5c3F)N3C[C@H]5CC[C@H](N5)[C@H]3[C@H](C)O4)c12` [Example 35-1, 1-((1-((((5S,5aS,6S,9R)-2-(8-ethynyl-7-fluoro-3-hydroxynaphthalen-1-yl)-1-fluoro-5-methyl-5a,6,7,8,9,10-hexahydro-5H-4-oxa-3,10a,11,13,14-pentaaza-6,9-methylenenaphtho[1,8-ab]heptalen-12-yl)oxo)methyl)cyclopropyl)methyl)piperidin-4-one O-methyloxime formate] reads 2.7 nM.
On to `C#Cc1c(F)ccc2cc(O)cc(-c3nc4c5c(nc(OCC6(CN7CCC(=CF)CC7)CC6)nc5c3F)N3C[C@H]5CC[C@H](N5)[C@H]3[C@H](C)O4)c12` [Example 129, 5-ethynyl-6-fluoro-4-((5S,5aS,6S,9R)-1-fluoro-12-((1-((4-(fluoromethylene)piperidin-1-yl)methyl)cyclopropyl)methoxy)-5-methyl-5a,6,7,8,9,10-hexahydro-5H-4-oxa-3,10a,11,13,14-pentaaza-6,9-methylnaphtho[1,8-ab]hept-2-yl)naphthalen-2-ol], for which, in experiment [1] (30mpk), the “Tumor volume (mm^3, Mean ± SD) Day 0” value was 167 mm^3; the “TGI(%) Day 14” value amounted to 133.12%; the “ΔT/ΔC(%) Day 14” value is given as 14.15%. For the same compound, in experiment [1] (100mpk), the “Tumor volume (mm^3, Mean ± SD) Day 0” value was determined as 167 mm^3; the “TGI(%) Day 14” value is listed as 153.01%; the “Tumor volume (mm^3, Mean ± SD) Day 14” value was 79 mm^3; the “ΔT/ΔC(%) Day 14” value is recorded as 9.94%. In the experiment on p-ERK in AGS cells, the IC50 is 2.4 nM. The “Tumor volume (mm^3, Mean ± SD) Day 14” value in experiment [2] is 112 mm^3.
Consider `[2H]C([2H])([2H])[C@@H]1Oc2nc(-c3cc(O)cc4ccc(F)c(C#C)c34)c(F)c3nc(OCC4(CN5CCC(=CF)CC5)CC4)nc(c23)N2C[C@H]3CC[C@H](N3)[C@@H]12` [Example 164], for which the concentration for half-maximal inhibition (IC50) in the experiment on p-ERK in AGS cells was found to be 3.6 nM.
On the same count and under the same terms, for `[2H]C([2H])(Oc1nc2c3c(nc(-c4cc(O)cc5ccc(F)c(C#C)c45)c(F)c3n1)O[C@@H](C)[C@@H]1[C@@H]3CC[C@H](CN21)N3)C1(C([2H])([2H])N2CCC(=CF)CC2)CC1` [Example 291, 5-ethynyl-6-fluoro-4-((5S,5aS,6S,9R)-1-fluoro-12-((1-((4-(fluoromethylene)piperidin-1-yl)methyl-d2)cyclopropyl)methoxy-d2)-5-methyl-5a,6,7,8,9,10-hexahydro-5H-4-oxa-3,10a,11,13,14-pentaaza-6,9-methylnaphtho[1,8-ab]hept-2-yl)naphthalen-2-ol] the value was 2.3 nM; for `CON=C1CCN(CC2(COc3nc4c5c(nc(-c6cc(N)cc(Cl)c6C(F)(F)F)c(F)c5n3)O[C@@H](C)[C@@H]3[C@@H]5CC[C@H](CN43)N5)CC2)CC1` [Example 337, 1-((1-((((5S,5aS,6S,9R)-2-(5-amino-3-chloro-2-(trifluoromethyl)phenyl)-1-fluoro-5-methyl-5a,6,7,8,9,10-hexahydro-5H-4-oxa-3,10a,11,13,14-pentaaza-6,9-methylnaphtho[1,8-ab]heptene-12-yl)oxy)methyl)cyclopropyl)methyl)piperidin-4-one O-methyloxime], 4.6 nM; for `[2H]C([2H])([2H])[C@@H]1Oc2nc(-c3cc(N)cc(Cl)c3C(F)(F)F)c(F)c3nc(OCC4(CN5CCC(=NOC)CC5)CC4)nc(c23)N2C[C@H]3CC[C@H](N3)[C@@H]12` [Example 339], 4.4 nM.

These data come from patent EP4635958A1, “PYRIMIDINE-CONTAINING POLYCYCLIC DERIVATIVE INHIBITOR, AND PREPARATION METHOD THEREFOR AND USE THEREOF” (Shanghai Hansoh Biomedical Co., Ltd., priority 2022, dated 2024).
